# Experiments:
# Alternaria solani = assay: Activity against early blight of tomato caused by Alternaria solani (protective spray, potted plants); assay type: in vivo; conditions: 250 ppm active compound; tomato cultivar St. Pierre beef tomato; infected next day; assessed after 5 days; untreated plants 80% infected
# Protocol: The active compounds were prepared as a stock solution comprising 0.25% by weight of active compound in acetone or dimethyl sulfoxide (DMSO). 1% by weight of the emulsifier Uniperol® EL (wetting agent having emulsifying and dispersing action based on ethoxylated alkylphenols) was added to this solution, and the mixture was diluted with water to the desired concentration. Leaves of potted plants of the cultivar “St. Pierre beef tomato” were sprayed to run off point with an aqueous suspension having the concentration of active compounds stated below. The next day, the leaves were infected with an aqueous zoospore suspension of Alternaria solani in 2% biomalt solution having a density of 0.17×10^6 spores/ml. The plants were then placed in a water-vapor-saturated chamber at temperatures of between 20 and 22° C. After 5 days, the infection on the leaves of the untreated, but infected control plants had developed to such an extent that the infection could be determined visually in %.
# Botrytis cinerea = assay: Activity against gray mold on bell pepper leaves caused by Botrytis cinerea (protective spray, seedlings); assay type: in vivo; conditions: 250 ppm active compound; bell pepper seedlings Neusiedler Ideal Elite; inoculated next day; assessed after 5 days; untreated plants 90% infected
# Protocol: The active compounds were prepared as a stock solution comprising 0.25% by weight of active compound in acetone or dimethyl sulfoxide (DMSO). 1% by weight of the emulsifier Uniperol® EL (wetting agent having emulsifying and dispersing action based on ethoxylated alkylphenols) was added to this solution, and the mixture was diluted with water to the desired concentration.
# Bell pepper seedlings of the cultivar “Neusiedler Ideal Elite” were, after 2-3 leaves were well developed, sprayed to runoff point with an aqueous suspension having the concentration of active compound stated below. The next day, the treated plants were inoculated with a spore suspension of Botrytis cinerea which contained 1.7×10^6 spores/ml in a 2% strength aqueous biomalt solution. The test plants were then placed in a climatized chamber at 22-24° C. and high atmospheric humidity. After 5 days, the extent of the fungal infection on the leaves could be determined visually in %.
smiles,measurement,setting,value
"CCC(C)Cc1c(-c2ccc([N+](=O)[O-])cc2Cl)c(C)nc2ncnn12 (centres unmarked) [example 1, 5-methyl-6-(2chloro-4-nitrophenyl)-7-(2-methylbutyl)-1,2,4-triazolo[1,5-a]pyrimidine]",infection on the leaves determined visually in %,Alternaria solani,less than 5%
same,extent of the fungal infection on the leaves determined visually in %,Botrytis cinerea,no infection

# From patent US20070249633A1, “1,2,4-Triazolo[1,5a] Pyrimidines and Use Thereof for Controlling Plant-Pathogenic Fungi” (priority 2004, published 2007)
